Reference: ChEMBL document CHEMBL3792369, “Nahuoic Acids B-E, Polyhydroxy Polyketides from the Marine-Derived Streptomyces sp. SCSGAA 0027” (2016)
Activity calls are given as the source filed them. No cut-off for these calls is given here.

What was measured:
[1] = target: Acetylcholinesterase (Homo sapiens) (UniProt P22303); assay: Inhibition of acetylcholinesterase (unknown origin)
BGC-823 = assay: Cytotoxicity against human BGC823 cells; format: functional, cell-based
NCI-H1975 = assay: Cytotoxicity against human NCI-H1975 cells; format: functional, cell-based
HL-60 = assay: Cytotoxicity against human HL60 cells; format: functional, cell-based
Shewanella oneidensis [2] = assay: Antibiofilm activity against Shewanella oneidensis MR-1 assessed as inhibition of biofilm formation at 200 ug/ml by crystal violet assay; format: functional
Staphylococcus aureus [3] = assay: Antibacterial activity against Staphylococcus aureus; format: functional, organism-based
MCF7 = assay: Cytotoxicity against human MCF7 cells; format: functional, cell-based
Shewanella oneidensis [4] = assay: Antibacterial activity against Shewanella oneidensis MR-1; format: functional
Huh-7 = assay: Cytotoxicity against human HuH7 cells; format: functional, cell-based
K562 = assay: Cytotoxicity against human K562 cells; format: functional, cell-based
Staphylococcus aureus [5] = assay: Antibiofilm activity against Staphylococcus aureus assessed as inhibition of biofilm formation by crystal violet assay; format: functional, organism-based

Chain of Acetylcholinesterase (Homo sapiens) (P22303 whole entry): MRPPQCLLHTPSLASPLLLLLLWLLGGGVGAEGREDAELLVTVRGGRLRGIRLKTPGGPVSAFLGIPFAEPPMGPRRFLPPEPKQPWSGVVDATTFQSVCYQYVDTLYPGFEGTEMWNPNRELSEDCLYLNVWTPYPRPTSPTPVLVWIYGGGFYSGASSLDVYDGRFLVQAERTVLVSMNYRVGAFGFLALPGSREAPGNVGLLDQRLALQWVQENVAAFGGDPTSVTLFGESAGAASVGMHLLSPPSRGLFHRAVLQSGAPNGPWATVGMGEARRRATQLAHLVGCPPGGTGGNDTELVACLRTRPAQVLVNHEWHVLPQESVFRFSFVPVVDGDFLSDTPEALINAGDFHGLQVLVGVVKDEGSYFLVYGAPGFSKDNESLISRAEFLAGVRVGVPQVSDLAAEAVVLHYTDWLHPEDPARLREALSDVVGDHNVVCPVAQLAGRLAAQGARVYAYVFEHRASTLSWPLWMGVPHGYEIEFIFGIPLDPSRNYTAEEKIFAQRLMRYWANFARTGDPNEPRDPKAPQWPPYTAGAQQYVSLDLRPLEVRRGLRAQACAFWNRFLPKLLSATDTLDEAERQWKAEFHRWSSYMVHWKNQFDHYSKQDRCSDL

Compound | inhibition [1] | Activity (BGC-823) | Activity (NCI-H1975) | Activity (HL-60) | inhibition at 200 µg/mL (Shewanella oneidensis [2]) | Activity (Staphylococcus aureus [3]) | Activity (MCF7) | Activity (Shewanella oneidensis [4]) | Activity (Huh-7) | Activity (K562) | Activity (Staphylococcus aureus [5])
CC1=C[C@@]2(C)[C@H]([C@@H](C)[C@H](O)[C@H](O)[C@H]2O)[C@@H](/C=C(\C)C(=O)O)[C@@H]1/C(C)=C/C[C@H](O)C[C@@H](O)[C@H](C)[C@@H](O)C(C)C | inactive | inactive | inactive | inactive | 63% | inactive | inactive | inactive | inactive | inactive | inactive
CC1=C[C@@]2(C)[C@@H]([C@@H](/C=C(\C)C(=O)O)[C@@H]1/C(C)=C/C[C@H](O)C[C@@H](O)C[C@@H](O)[C@H](C)[C@@H](O)C(C)C)[C@@H](C)CC[C@H]2O | inactive | inactive | inactive | inactive | 95% | inactive | inactive | inactive | inactive | inactive | inactive
CC1=C[C@@]2(C)[C@H]([C@@H](C)[C@H](O)C[C@H]2O)[C@@H](/C=C(\C)C(=O)O)[C@@H]1/C(C)=C/C[C@H](O)C[C@@H](O)[C@H](C)[C@@H](O)C(C)C | inactive | inactive | inactive | inactive | 98% | inactive | inactive | inactive | inactive | inactive | inactive
CC1=C[C@@]2(C)[C@@H]([C@@H](/C=C(\C)C(=O)O)[C@@H]1/C(C)=C/C[C@H](O)C[C@@H](O)[C@H](C)[C@@H](O)C(C)C)[C@@H](C)CC[C@H]2O | inactive | inactive | inactive | inactive | 94% | inactive | inactive | inactive | inactive | inactive | inactive
CC1=C[C@@]2(C)[C@H]([C@@H](C)[C@H](O)C[C@H]2O)[C@@H](/C=C(\C)C(=O)O)[C@@H]1/C(C)=C/C[C@H](O)C[C@@H](O)C[C@@H](O)[C@H](C)[C@@H](O)C(C)C | inactive | inactive | inactive | inactive | 91% | inactive | inactive | inactive | inactive | inactive | inactive
